From US9833497B2, “Human originated EGF domain proteins and use of the same” (CHENGDU SOURCEBIO LIMITED-LIABILITY COMPANY, priority 2013, dated 2017)

Experiments:
Assay type in all cases: cell-based
Proteus vulgaris = test: MIC against Gram-negative bacteria: Proteus vulgaris
Outline: (§1)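 Antibacterial activity of purified human EGF domain proteins: two-fold concentration series, triplicate wells, LB broth, 5×10^5 CFU/mL bacteria, 37° C shaking incubation. The lowest concentration without growth defines the MIC.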

Klebsiella pneumonia = test: MIC against Gram-negative bacteria: Klebsiella pneumonia
Outline: as §1

Serratia marcescens = test: MIC against Gram-negative bacteria: Serratia marcescens
Outline: as §1

Pseudomonas aeruginosa = test: MIC against Gram-negative bacteria: Pseudomonas aeruginosa
Outline: as §1

E. coli BL21 = test: MIC against Gram-negative bacteria: E. coli BL21
Outline: as §1

Moraxella catarrhalis = test: MIC against Gram-negative bacteria: Moraxella catarrhalis
Outline: as §1

Citrobacter diversus = test: MIC against Gram-negative bacteria: Citrobacter diversus
Outline: as §1

Aeromonas hydrophila = test: MIC against Gram-negative bacteria: Aeromonas hydrophila
Outline: as §1

Proteus mirabilis = test: MIC against Gram-negative bacteria: Proteus mirabilis
Outline: as §1

Enterobacter cloacae = test: MIC against Gram-negative bacteria: Enterobacter cloacae
Outline: as §1

E. coli DH5α = test: Antibacterial activity: MIC and growth curve against E. coli DH5α in 96-well plate; settings: minimal inhibitory concentration against E. coli DH5α; 96-well plate, 5×10^5 CFU/mL, 37° C., judged after 8 h
Outline: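 MIC taken as lowest protein level with no bacterial growth, tracked by A600 every 30 min during 37 °C, 175 rpm culture. Two-fold protein series 50-12.5 μg/mL final, triplicate wells, against 5×10^5 CFU/mL of LB-washed mid-log cells.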

[1] = 96-well plate, 5×10^5 CFU/mL, 37° C., 10 h
[2] = Proteus vulgaris, 96-well plate, 5×10^5 CFU/mL, 37° C., 10 h
[3] = Klebsiella pneumonia, 96-well plate, 5×10^5 CFU/mL, 37° C., 10 h
[4] = Serratia marcescens, 96-well plate, 5×10^5 CFU/mL, 37° C., 10 h
[5] = Pseudomonas aeruginosa, 96-well plate, 5×10^5 CFU/mL, 37° C., 10 h
[6] = E. coli BL21, 96-well plate, 5×10^5 CFU/mL, 37° C., 10 h
[7] = Moraxella catarrhalis, 96-well plate, 5×10^5 CFU/mL, 37° C., 10 h
[8] = Citrobacter diversus, 96-well plate, 5×10^5 CFU/mL, 37° C., 10 h
[9] = Aeromonas hydrophila, 96-well plate, 5×10^5 CFU/mL, 37° C., 10 h
[10] = Proteus mirabilis, 96-well plate, 5×10^5 CFU/mL, 37° C., 10 h
[11] = Enterobacter cloacae, 96-well plate, 5×10^5 CFU/mL, 37° C., 10 h
[12] = P. vulgaris, 10 h cultivation at 37° C., 5×10^5 CFU/mL
[13] = K. pneumonia, 10 h cultivation at 37° C., 5×10^5 CFU/mL
[14] = S. marcescens, 10 h cultivation at 37° C., 5×10^5 CFU/mL
[15] = P. aeruginosa, 10 h cultivation at 37° C., 5×10^5 CFU/mL
[16] = E. coli BL21, 10 h cultivation at 37° C., 5×10^5 CFU/mL
[17] = M. catarrhalis, 10 h cultivation at 37° C., 5×10^5 CFU/mL
[18] = C. diversus, 10 h cultivation at 37° C., 5×10^5 CFU/mL
[19] = A. hydrophila, 10 h cultivation at 37° C., 5×10^5 CFU/mL
[20] = P. mirabilis, 10 h cultivation at 37° C., 5×10^5 CFU/mL
[21] = E. cloacae, 10 h cultivation at 37° C., 5×10^5 CFU/mL

**Q.** Which “MIC against P. vulgaris” value (Proteus vulgaris; [1]) does the source give for “PRT462 (DVDECLEGLDDCHYNQLCENTPGGHRCSCPRGYRMQGPS; listed as Homo sapiens)” here?
**A.** 12.5 µg/mL

**Q.** And the “MIC against K. pneumonia” value (Klebsiella pneumonia; [1])?
**A.** 12.5 µg/mL

**Q.** What about the “MIC against S. marcescens” value (Serratia marcescens; [1]) of the same substance?
**A.** 25 µg/mL

**Q.** And the “MIC against P. aeruginosa” value (Pseudomonas aeruginosa; [1])?
**A.** 100 µg/mL

**Q.** What about the “MIC against E. coli BL21” value (E. coli BL21; [1]) of the same substance?
**A.** 12.5 µg/mL

**Q.** What about the “MIC against M. catarrhalis” value (Moraxella catarrhalis; [1]) of the same substance?
**A.** 50 µg/mL

**Q.** What about the “MIC against C. diversus” value (Citrobacter diversus; [1]) of the same substance?
**A.** 12.5 µg/mL

**Q.** What about the “MIC against A. hydrophila” value (Aeromonas hydrophila; [1]) of the same substance?
**A.** 12.5 µg/mL

**Q.** What about the “MIC against P. mirabilis” value (Proteus mirabilis; [1]) of the same substance?
**A.** 25 µg/mL

**Q.** What about the “MIC against E. cloacae” value (Enterobacter cloacae; [1]) of the same substance?
**A.** 12.5 µg/mL

**Q.** What about the MIC (E. coli DH5α) of the same substance?
**A.** 12.5 µg/mL

**Q.** Which “MIC P. vulgaris” value (Proteus vulgaris; [1]) does the source give for “PRT714 (HINECLSKKVSGCSQDCQDLPVSYKCKCWPGFQLKDDGKTCV; listed as Homo sapiens)” here?
**A.** 50 µg/mL

**Q.** And the “MIC K. pneumonia” value (Klebsiella pneumonia; [1])?
**A.** 12.5 µg/mL

**Q.** And the “MIC S. marcescens” value (Serratia marcescens; [1])?
**A.** 12.5 µg/mL

**Q.** And the “MIC P. aeruginosa” value (Pseudomonas aeruginosa; [1])?
**A.** 12.5 µg/mL

**Q.** What about the “MIC E. coli BL21” value (E. coli BL21; [1]) of the same substance?
**A.** 25 µg/mL

**Q.** What about the “MIC M. catarrhalis” value (Moraxella catarrhalis; [1]) of the same substance?
**A.** 50 µg/mL

**Q.** And the “MIC C. diversus” value (Citrobacter diversus; [1])?
**A.** 12.5 µg/mL

**Q.** And the “MIC A. hydrophila” value (Aeromonas hydrophila; [1])?
**A.** 50 µg/mL

**Q.** What about the “MIC P. mirabilis” value (Proteus mirabilis; [1]) of the same substance?
**A.** 12.5 µg/mL

**Q.** What about the “MIC E. cloacae” value (Enterobacter cloacae; [1]) of the same substance?
**A.** 12.5 µg/mL

**Q.** What about the MIC (E. coli DH5α) of the same substance?
**A.** 12.5 µg/mL

**Q.** With “PRT1276 (LTCNYGNGGCQHTCDDTEQGPRCGCHIKFVLHTDGKTCI; listed as Homo sapiens)” as the substance, how does the “MIC against P. vulgaris” value (Proteus vulgaris; [2]) read?
**A.** 12.5 µg/mL

**Q.** And the “MIC against K. pneumonia” value (Klebsiella pneumonia; [3])?
**A.** 12.5 µg/mL

**Q.** What about the “MIC against S. marcescens” value (Serratia marcescens; [4]) of the same substance?
**A.** 50 µg/mL

**Q.** And the “MIC against P. aeruginosa” value (Pseudomonas aeruginosa; [5])?
**A.** 50 µg/mL

**Q.** And the “MIC against E. coli BL21” value (E. coli BL21; [6])?
**A.** 12.5 µg/mL

**Q.** And the “MIC against M. catarrhalis” value (Moraxella catarrhalis; [7])?
**A.** 12.5 µg/mL

**Q.** And the “MIC against C. diversus” value (Citrobacter diversus; [8])?
**A.** 50 µg/mL

**Q.** What about the “MIC against A. hydrophila” value (Aeromonas hydrophila; [9]) of the same substance?
**A.** 12.5 µg/mL

**Q.** What about the “MIC against P. mirabilis” value (Proteus mirabilis; [10]) of the same substance?
**A.** 50 µg/mL

**Q.** What about the “MIC against E. cloacae” value (Enterobacter cloacae; [11]) of the same substance?
**A.** 50 µg/mL

**Q.** What about the MIC (E. coli DH5α) of the same substance?
**A.** 50 µg/mL

**Q.** Which results are given for “PRT933 (HRDPCEKNRCQNGGTCVAQAMLGKATCRCASGFTGEDCQ; listed as Homo sapiens)”?
**A.** MIC (Proteus vulgaris; P. vulgaris, 10 h cultivation at 37° C.): 12.5 µg/mL; MIC (Klebsiella pneumonia; K. pneumonia, 10 h cultivation at 37° C.): 50 µg/mL; MIC (Serratia marcescens; S. marcescens, 10 h cultivation at 37° C.): 50 µg/mL; MIC (Pseudomonas aeruginosa; P. aeruginosa, 10 h cultivation at 37° C.): 12.5 µg/mL; MIC (E. coli BL21; E. coli BL21, 10 h cultivation at 37° C.): 25 µg/mL; MIC (Moraxella catarrhalis; M. catarrhalis, 10 h cultivation at 37° C.): 50 µg/mL; MIC (Citrobacter diversus; C. diversus, 10 h cultivation at 37° C.): 25 µg/mL; MIC (Aeromonas hydrophila; A. hydrophila, 10 h cultivation at 37° C.): 12.5 µg/mL; MIC (Proteus mirabilis; P. mirabilis, 10 h cultivation at 37° C.): 25 µg/mL; MIC (Enterobacter cloacae; E. cloacae, 10 h cultivation at 37° C.): 25 µg/mL; MIC (E. coli DH5α): 12.5 µg/mL

**Q.** For “PRT113 (DLDECASRSKSGEEDPQPQCQHLCHNYVGGYFCSCRPGYELQEDRHSCQ; listed as Homo sapiens)”, which “MIC (μg/mL) P. vulgaris” value (Proteus vulgaris; [2]) is on record?
**A.** 12.5 µg/mL

**Q.** And the “MIC (μg/mL) K. pneumonia” value (Klebsiella pneumonia; [3])?
**A.** 12.5 µg/mL

**Q.** And the “MIC (μg/mL) S. marcescens” value (Serratia marcescens; [4])?
**A.** 100 µg/mL

**Q.** And the “MIC (μg/mL) P. aeruginosa” value (Pseudomonas aeruginosa; [5])?
**A.** 25 µg/mL

**Q.** What about the “MIC (μg/mL) E. coli BL21” value (E. coli BL21; [6]) of the same substance?
**A.** 50 µg/mL

**Q.** And the “MIC (μg/mL) M. catarrhalis” value (Moraxella catarrhalis; [7])?
**A.** 50 µg/mL

**Q.** What about the “MIC (μg/mL) C. diversus” value (Citrobacter diversus; [8]) of the same substance?
**A.** 12.5 µg/mL

**Q.** What about the “MIC (μg/mL) A. hydrophila” value (Aeromonas hydrophila; [9]) of the same substance?
**A.** 50 µg/mL

**Q.** What about the “MIC (μg/mL) P. mirabilis” value (Proteus mirabilis; [10]) of the same substance?
**A.** 12.5 µg/mL

**Q.** What about the “MIC (μg/mL) E. cloacae” value (Enterobacter cloacae; [11]) of the same substance?
**A.** 25 µg/mL

**Q.** What about the MIC (E. coli DH5α) of the same substance?
**A.** 12.5 µg/mL

**Q.** What does the source list for “PRT755 (AVDYCASENHGCEHECVNADGSYLCQCHEGFALNPDKKTCT; listed as Homo sapiens)”?
**A.** MIC (μg/mL) P. vulgaris (Proteus vulgaris; [12]): 12.5 µg/mL; MIC (μg/mL) K. pneumonia (Klebsiella pneumonia; [13]): 50 µg/mL; MIC (μg/mL) S. marcescens (Serratia marcescens; [14]): 25 µg/mL; MIC (μg/mL) P. aeruginosa (Pseudomonas aeruginosa; [15]): 12.5 µg/mL; MIC (μg/mL) E. coli BL21 (E. coli BL21; [16]): 50 µg/mL; MIC (μg/mL) M. catarrhalis (Moraxella catarrhalis; [17]): 50 µg/mL; MIC (μg/mL) C. diversus (Citrobacter diversus; [18]): 12.5 µg/mL; MIC (μg/mL) A. hydrophila (Aeromonas hydrophila; [19]): 50 µg/mL; MIC (μg/mL) P. mirabilis (Proteus mirabilis; [20]): 12.5 µg/mL; MIC (μg/mL) E. cloacae (Enterobacter cloacae; [21]): 12.5 µg/mL; MIC (E. coli DH5α): 12.5 µg/mL

**Q.** What does the source list for “PRT744 (GWNECASSNGHCSHLCLAVPVGGFVCGCPAHYSLNADNRTCS; listed as Homo sapiens)”?
**A.** MIC (μg/mL) P. vulgaris (Proteus vulgaris; [12]): 25 µg/mL; MIC (μg/mL) K. pneumonia (Klebsiella pneumonia; [13]): 50 µg/mL; MIC (μg/mL) S. marcescens (Serratia marcescens; [14]): 12.5 µg/mL; MIC (μg/mL) P. aeruginosa (Pseudomonas aeruginosa; [15]): 12.5 µg/mL; MIC (μg/mL) E. coli BL21 (E. coli BL21; [16]): 50 µg/mL; MIC (μg/mL) M. catarrhalis (Moraxella catarrhalis; [17]): 50 µg/mL; MIC (μg/mL) C. diversus (Citrobacter diversus; [18]): 12.5 µg/mL; MIC (μg/mL) A. hydrophila (Aeromonas hydrophila; [19]): 50 µg/mL; MIC (μg/mL) P. mirabilis (Proteus mirabilis; [20]): 25 µg/mL; MIC (μg/mL) E. cloacae (Enterobacter cloacae; [21]): 12.5 µg/mL; MIC (E. coli DH5α): 12.5 µg/mL
